One test addresses STING (Homo sapiens, UniProt Q86WV6). The experiment in a line: STING antagonist activity, cell-based ISG54 promoter-reporter luciferase measurement of IRF activity (THP-1 dual / RAW-ISG cells). The conditions noted are these: Antagonist Activity of Exemplary Compounds, cell line and agonist not given. In outline:
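THP-1 dual or RAW-ISG cells (50,000/well) pretreated 1 h with compound (10 to 0.01 uM), then stimulated with SB 11285 (30 nM or 1 μM) or 2′3′-cGAMP (10 ug/mL or lipo mixture) for 18–20 h at 37° C. IRF-driven luciferase read by Quanti-Luc; % inhibition versus untreated or DMSO wells, IC50 by curve fit.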

Test [1] deals with cGAS-STING-IRF/NF-κB signaling pathway. The experiment in a line: Inhibition of dsDNA-induced cGAS-STING-IRF/NF-κB signaling. The format is cell-based. As for the experimental part: (§1) Evaluation of activity of compounds in THP-1 cells for their inhibition of STING, LPS, ppp-dsRNA & Poly IC induction: THP-1 cells were treated with different concentrations (10 uM to 0.01 uM) of Compounds for 1 h followed by STING/TLR3/TLR4/RIG-I/TLR7/9 activation by corresponding agonists. Lipofectamine (LTX) was used along with dsRNA, 2′-3′cGAMP & VACV-70. The cells were then incubated for 20 hours @ 37° C. before measuring IRF activation by using Quanti-Luc. The % inhibition was calculated as 100-[(luminescence of COI treated well/luminescence of non COI treated well)/100]×100. Cytotoxicity was measured by using Cell Titer Glo.

The test system of test [2] is RIG-I-IRF/NF-κB signaling pathway. Nature of the test: Inhibition of 3p-hpRNA-induced RIG-I-IRF/NF-κB signaling. The format is cell-based. On the procedure: as §1
Test [3] relates to TLR7/9 signaling pathways. The experiment in a line: Effect on TLR7/9 signaling. In kind it is cell-based. On the procedure: as §1
The subject of another test is TLR4/NF-κB activation. The experiment in a line: LPS-induced TLR4/NF-κB activation in RAW-WT cells. The format is cell-based.

Where two headings read alike, the source gives them in different places.

Broadly, the IC50 is the concentration needed to halve the response being measured.

STING, sequence (Q86WV6 whole entry): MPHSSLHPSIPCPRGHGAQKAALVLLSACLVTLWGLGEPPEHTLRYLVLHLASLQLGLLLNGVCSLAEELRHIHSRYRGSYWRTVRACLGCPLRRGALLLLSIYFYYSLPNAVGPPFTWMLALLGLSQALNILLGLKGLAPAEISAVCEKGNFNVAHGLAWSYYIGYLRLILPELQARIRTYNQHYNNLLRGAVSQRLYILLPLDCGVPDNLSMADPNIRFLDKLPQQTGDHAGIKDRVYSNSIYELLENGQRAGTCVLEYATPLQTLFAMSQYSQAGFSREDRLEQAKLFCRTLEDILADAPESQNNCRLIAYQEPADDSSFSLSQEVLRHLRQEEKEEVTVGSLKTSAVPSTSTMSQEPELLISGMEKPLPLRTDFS

At STING, `COC(=O)CCCCCCCCCCCCCCCn1cnc2nc(Cl)nc(Cl)c21` [Compound 6] gave an IC50 of 1 to 1000 nM. Moreover, the “inhibition of dsDNA-induced cGAS-STING-IRF/NF-κB signaling pathway” value in test [1] is “weakly inhibits”. The “inhibition of 3p-hpRNA-induced RIG-I-IRF/NF-κB signaling pathway” value in test [2] is “weakly inhibits”. Besides, the “effect on TLR7/9 signaling pathways” value in test [3] is “does not affect”. For the same molecule, the “inhibition of LPS-induced TLR4/NF-κB activation” value in the test on TLR4/NF-κB activation is “seems to inhibit”.
With `COC(=O)CCCCCCN(C)CCCCCCCCn1c(C)nc2nc(Cl)nc(Cl)c21` [Compound 141, Methyl 7-((8-(2,6-dichloro-8-methyl-7H-purin-7-yl)octyl)(methyl)amino)heptanoate], the IC50 at STING (read-out: IC50) is 1 to 1000 nM.
Consider `Clc1nc(Cl)c2c(ncn2CCCCn2cnc3nc(Cl)nc(Cl)c32)n1` [Compound 55, 1,4-bis(2,6-dichloro-7H-purin-7-yl)butane], for which the IC50 on STING (read-out: IC50) was in the range of 5000 to 10000 nM.
Still for that read-out and setting: the same measure for `COC(=O)CCCCn1c(C)nc2nc(Cl)nc(S(=O)(=O)C(C)C)c21` [Compound 121, methyl 5-(2-chloro-6-(isopropylsulfonyl)-8-methyl-7H-purin-7-yl)pentanoate]: 1000 to 5000 nM; for `CCCCCCCCCCCCCCCCn1c(C)nc2nc(Cl)nc(Cl)c21` [Compound 77, 2,6-dichloro-7-hexadecyl-8-methyl-7H-purine]: 1 to 1000 nM.
The same measure, in the same setting: the same measure for `Cc1nc2nc(Cl)nc(Cl)c2n1CCCCCCCCn1c(C)nc2nc(Cl)nc(Cl)c21` [Compound 63, 1,8-bis(2,6-dichloro-8-methyl-7H-purin-7-yl)octane]: 1 to 1000 nM; for `COc1ccc(Cn2c(C)nc3nc(Cl)nc(Cl)c32)cc1` [Compound 67, 2,6-dichloro-7-(4-methoxybenzyl)-8-methyl-7H-purine]: 1000 to 5000 nM; for `COC(=O)CCCCCCCCCCCCCCCn1cnc2nc(NC(C)=O)nc(Cl)c21` [Compound 46, methyl 16-(2-acetamido-6-chloro-7H-purin-7-yl) hexadecanoate]: over 20000 nM.
Still for that read-out and setting: the same measure for `Cc1nc2nc(Cl)nc(Cl)c2n1CCCCCCCl` [Compound 65, 2,6-dichloro-7-(6-chlorohexyl)-8-methyl-7H-purine]: 1000 to 5000 nM; for `Cc1nc2c(Cl)nc(Cl)nc2n1CCCCCCCCCCCCCCCc1nnnn1C` [Compound 100, 2,6-dichloro-8-methyl-9-(15-(1-methyl-1H-tetrazol-5-yl)pentadecyl)-9H-purine]: 5000 to 10000 nM; for `COC(=O)CCCCCCCCCCCCCCCn1cnc2nc(Cl)nc(S(C)(=O)=O)c21` [Compound 39, methyl 16-(2-chloro-6-(methylsulfonyl)-7H-purin-7-yl) hexadecanoate]: over 20000 nM.

Values taken from patent US20220168309A1 (F-STAR THERAPEUTICS, INC., priority 2019, published 2022).
